According to ChEMBL document CHEMBL6096722, “A Hypoxia-Activated BODIPY-Azo Anticancer Prodrug for Bimodal Chemo-Photodynamic Therapy” (J Med Chem, 2025):
Active and inactive are the calls of the source. The calls are words filed in the database; no cut-off is given here.

What was measured:
[1] = Photostability of compound in PBS buffer at pH 7.4 at 10 uM under 20 W/cm2 white LED light irradiation measured for 60 mins by absorption based assay; assay type: physicochemical; settings: pH 7.4, 1 h
[2] = test system: A-375; assay: Cytotoxicity against human A-375 cells assessed as cell viability at upto 100 uM preincubated with compound for 4 hrs followed by light irradiation for 30 mins and measured after 24 hrs under hypoxic condition by CCK-8 assay; assay type: functional, cell-based; settings: time 28.5 hrs
[3] = Induction of singlet oxygen quantum yield under irradiation with 590 nm LED light by DPBF based assay; assay type: functional
[4] = test system: A-375; assay: Cytotoxicity against human A-375 cells assessed as cell viability at 100 uM preincubated with compound for 4 hrs followed by light irradiation for 30 mins and measured after 24 hrs by CCK-8 assay; assay type: functional, cell-based; settings: time 28.5 hrs
[5] = Toxicity in BALB/c mouse assessed change in body weight at 2.9 mg/ml, ip measured for 60 mins with light irradiation; assay type: organism-based; settings: in vivo, 1 h
[6] = Photostability of compound in PBS buffer at pH 7.4 at 10 uM under 20 W/cm2 white LED light irradiation measured upto 10 mins by absorption based assay; assay type: physicochemical; settings: pH 7.4, 10 min
[7] = test system: A-375; assay: Anticancer activity against human A-375 cells measured at 24 hrs under hypoxic condition; assay type: functional, cell-based
[8] = test system: A-375; assay: Anticancer activity against human A-375 cells measured at 12 to 30 hrs under hypoxic condition; assay type: functional, cell-based; settings: time 12-30 hrs
[9] = test system: A-375; assay: Antitumor activity against human A-375 cells assessed as cell viability incubated for 4 hrs under hypoxia condition by MTT assay; assay type: functional, cell-based; settings: A-375, 4 h
[10] = test system: A-375; assay: Antitumor activity against human A-375 cells xenografted in male BALB/c mouse assessed as tumor growth inhibition at 2.9 mg/ml, ip measured for 60 mins with light irradiation; assay type: functional; settings: A-375, light or radiation study, 1 h, read-out: TGI
[11] = Cytotoxicity against human HUVEC cells assessed as cell viability at upto 100 uM incubated for 4 hrs by CCK-8 assay; assay type: toxicity, cell-based; settings: read-out: Activity
[12] = test system: A-375; assay: Cytotoxicity against human A-375 cells assessed as cell viability at upto 100 uM incubated for 4 hrs under hypoxic condition by CCK-8 assay; assay type: functional, cell-based
[13] = test system: A-375; assay: Cytotoxicity against human A-375 cells assessed as cell viability at 0.25 to 16 uM incubated for 4 hrs by CCK-8 assay; assay type: functional; settings: dose 0.25-16 µM
[14] = Toxicity in BALB/c mouse assessed at 2.9 mg/ml, ip assessed as morphological changes in tumor measured for 60 mins with light irradiation by H and E staining based analysis; assay type: organism-based; settings: in vivo, 1 h
[15] = test system: A-375; assay: Antitumor activity against human A-375 cells assessed as cell viability incubated for 4 hrs under normoxic condition by MTT assay; assay type: functional, cell-based; settings: A-375, 4 h
[16] = test system: A-375; assay: Induction of ROS generation in human A-375 cells assessed as increase fluorescence intensity at 10 uM incubated with compound for 24 hrs by DCFH-DA staining based analysis; assay type: functional, cell-based
[17] = Retention time of the compound by HPLC-MASS analysis; assay type: physicochemical
[18] = test system: A-375; assay: Cytotoxicity against human A-375 cells assessed as cell viability at 100 uM incubated for 4 hrs by CCK-8 assay; assay type: functional; settings: read-out: Activity
[19] = test system: A-375; assay: Induction of ROS generation in human A-375 cells assessed as increase in green fluorescence at 10 uM preincubated with compound for 24 hrs followed by light irradiation for 30 mins and measured after 30 mins by DCFH-DA staining based fluorescence microscopic analysis; assay type: functional, cell-based; settings: time 25.0 hrs
[20] = test system: A-375; assay: Cytotoxicity against human A-375 cells assessed as cell viability at >1 uM preincubated with compound for 4 hrs followed by light irradiation for 30 mins and measured after 24 hrs by CCK-8 assay; assay type: functional, cell-based; settings: time 28.5 hrs
[21] = test system: A-375; assay: Antitumor activity against human A-375 cells assessed as cell viability preincubated with compound for 4 hrs followed by light irradiation for 30 mins and measured after 24 hrs under normoxic condition by MTT assay; assay type: functional, cell-based; settings: A-375, light or radiation study
[22] = test system: A-375; assay: Antitumor activity against human A-375 cells assessed as cell viability preincubated with compound for 4 hrs followed by light irradiation for 30 mins and measured after 24 hrs under hypoxic condition by MTT assay; assay type: functional, cell-based; settings: A-375, light or radiation study
[23] = Selectivity index, ratio of IC50 for antitumor activity against human A-375 cells assessed as cell viability incubated for 4 hrs under hypoxic condition by MTT assay to IC50 for antitumor activity against human A-375 cells assessed as cell viability incubated for 4 hrs under normoxic condition by MTT assay; assay type: functional
[24] = test system: A-375; assay: Induction of apoptosis in human A-375 cells assessed as early apoptotic cells at 2 uM incubated for 24 hrs under normoxia condition by Annexin V-FITC staining based flow cytometry analysis; assay type: functional
[25] = test system: A-375; assay: Induction of apoptosis in human A-375 cells assessed as early apoptotic cells at 6 uM incubated for 24 hrs under normoxia condition by Annexin V-FITC staining based flow cytometry analysis; assay type: functional
[26] = test system: A-375; assay: Induction of apoptosis in human A-375 cells assessed as late apoptotic cells at 2 uM incubated for 24 hrs under normoxia condition by Annexin V-FITC staining based flow cytometry analysis; assay type: functional
[27] = test system: A-375; assay: Induction of apoptosis in human A-375 cells assessed as late apoptotic cells at 6 uM incubated for 24 hrs under hypoxia condition by Annexin V-FITC staining based flow cytometry analysis; assay type: functional
[28] = test system: A-375; assay: Induction of apoptosis in human A-375 cells assessed as early apoptotic cells at 4 uM incubated for 24 hrs under hypoxia condition by Annexin V-FITC staining based flow cytometry analysis; assay type: functional
[29] = test system: A-375; assay: Induction of apoptosis in human A-375 cells assessed as early apoptotic cells at 6 uM incubated for 24 hrs under hypoxia condition by Annexin V-FITC staining based flow cytometry analysis; assay type: functional
[30] = test system: A-375; assay: Induction of apoptosis in human A-375 cells assessed as early apoptotic cells at 2 uM incubated for 24 hrs under hypoxia condition by Annexin V-FITC staining based flow cytometry analysis; assay type: functional
[31] = test system: A-375; assay: Induction of apoptosis in human A-375 cells assessed as necrotic cells at 6 uM incubated for 24 hrs under hypoxia condition by Annexin V-FITC staining based flow cytometry analysis; assay type: functional
[32] = test system: A-375; assay: Induction of apoptosis in human A-375 cells assessed as viable cells at 4 uM incubated for 24 hrs under normoxia condition by Annexin V-FITC staining based flow cytometry analysis; assay type: functional; settings: read-out: Activity
[33] = test system: A-375; assay: Induction of apoptosis in human A-375 cells assessed as necrotic cells at 4 uM incubated for 24 hrs under normoxia condition by Annexin V-FITC staining based flow cytometry analysis; assay type: functional
[34] = test system: A-375; assay: Induction of apoptosis in human A-375 cells assessed as viable cells at 6 uM incubated for 24 hrs under normoxia condition by Annexin V-FITC staining based flow cytometry analysis; assay type: functional; settings: read-out: Activity
[35] = test system: A-375; assay: Induction of apoptosis in human A-375 cells assessed as viable cells at 6 uM incubated for 24 hrs under hypoxia condition by Annexin V-FITC staining based flow cytometry analysis; assay type: functional; settings: read-out: Activity
[36] = test system: A-375; assay: Induction of apoptosis in human A-375 cells assessed as viable cells at 2 uM incubated for 24 hrs under normoxia condition by Annexin V-FITC staining based flow cytometry analysis; assay type: functional; settings: read-out: Activity
[37] = test system: A-375; assay: Induction of apoptosis in human A-375 cells assessed as necrotic cells at 4 uM incubated for 24 hrs under hypoxia condition by Annexin V-FITC staining based flow cytometry analysis; assay type: functional
[38] = test system: A-375; assay: Induction of apoptosis in human A-375 cells assessed as late apoptotic cells at 6 uM incubated for 24 hrs under normoxia condition by Annexin V-FITC staining based flow cytometry analysis; assay type: functional
[39] = test system: A-375; assay: Induction of apoptosis in human A-375 cells assessed as necrotic cells at 2 uM incubated for 24 hrs under normoxia condition by Annexin V-FITC staining based flow cytometry analysis; assay type: functional
[40] = test system: A-375; assay: Induction of apoptosis in human A-375 cells assessed as necrotic cells at 2 uM incubated for 24 hrs under hypoxia condition by Annexin V-FITC staining based flow cytometry analysis; assay type: functional
[41] = test system: A-375; assay: Induction of apoptosis in human A-375 cells assessed as viable cells at 2 uM incubated for 24 hrs under hypoxia condition by Annexin V-FITC staining based flow cytometry analysis; assay type: functional; settings: read-out: Activity
[42] = test system: A-375; assay: Induction of apoptosis in human A-375 cells assessed as early apoptotic cells at 4 uM incubated for 24 hrs under normoxia condition by Annexin V-FITC staining based flow cytometry analysis; assay type: functional
[43] = test system: A-375; assay: Induction of apoptosis in human A-375 cells assessed as late apoptotic cells at 4 uM incubated for 24 hrs under hypoxia condition by Annexin V-FITC staining based flow cytometry analysis; assay type: functional
[44] = test system: A-375; assay: Induction of apoptosis in human A-375 cells assessed as necrotic cells at 6 uM incubated for 24 hrs under normoxia condition by Annexin V-FITC staining based flow cytometry analysis; assay type: functional
[45] = test system: A-375; assay: Induction of apoptosis in human A-375 cells assessed as viable cells at 4 uM incubated for 24 hrs under hypoxia condition by Annexin V-FITC staining based flow cytometry analysis; assay type: functional; settings: read-out: Activity
[46] = test system: A-375; assay: Induction of apoptosis in human A-375 cells assessed as late apoptotic cells at 2 uM incubated for 24 hrs under hypoxia condition by Annexin V-FITC staining based flow cytometry analysis; assay type: functional
[47] = test system: A-375; assay: Induction of apoptosis in human A-375 cells assessed as late apoptotic cells at 4 uM incubated for 24 hrs under normoxia condition by Annexin V-FITC staining based flow cytometry analysis; assay type: functional

With `CC1=C(Br)C(C)=[N+]2C1=C(c1ccccc1)c1c(C)c(Br)c(/C=C/c3ccc(O)cc3)n1[B-]2(F)F` the Stability [1] was “Stable”, the Activity [2] was “Active” and the Activity [3] was “Active”. For the same compound, the Activity [4] was “Active”, the Activity [5] was “Non-toxic” and the Stability [6] was “Stable”. For the same compound, the Activity [7] was “Active”, the Activity [8] was “Active” and the IC50 [9] was over 16 µM. The inhibition in vivo at 2900 µg/mL [10] was 71%, the viability at 4 h, 100 µM [11] was over 90% and the Activity [12] was “Active”. The Activity [13] was over 80%, the Activity [14] was “Non-toxic” and the IC50 [15] was over 100 µM. For the same compound, the Activity [16] was “Active”, the Retention_time [17] was 3.5 min and the viability at 100 µM [18] was about 50%. For the same compound, the Activity [19] was “Active”, the Activity [20] was “Active” and the IC50 [21] was 6.99 µM. The IC50 [22] was 0.77 µM and the “Ratio IC50” value [23] was 309.63.
For `CC1=C(Br)C(C)=[N+]2C1=C(c1ccccc1)c1c(C)c(Br)c(/C=C/c3ccc(OCc4ccc(/N=N/c5ccc(N(CCCl)CCCl)cc5)cc4)cc3)n1[B-]2(F)F`, the Activity [24] was 4.467%, the Stability [1] was “Stable” and the Activity [2] was “Active”. The Activity [25] was 12.663%, the Activity [3] was “Active” and the Activity [26] was 2.806%. For the same compound, the Activity [4] was “Active”, the Activity [27] was 3.285% and the Activity [28] was 0.147%. The Stability [6] was “Stable”, the Activity [29] was 1.832% and the Activity [30] was 0.809%. For the same compound, the Activity [31] was 1.274%, the viability at 4 µM [32] was 85.5% and the IC50 [9] was over 16 µM. It also gave an Activity [33] of 0.185%, an inhibition in vivo at 2900 µg/mL [10] of 92% and a viability at 4 h, 100 µM [11] of over 90%. For the same compound, the Activity [12] was “Active”, the viability at 6 µM [34] was 71.7% and the Activity [13] was over 80%. For the same compound, the viability at 6 µM [35] was 93.6%, the viability at 2 µM [36] was 92.7% and the Activity [37] was 0.975%. The Activity [38] was 15.404%, the Activity [39] was 0.058% and the IC50 [15] was over 100 µM. The Activity [16] was “Active”, the Activity [40] was 13.664% and the viability at 2 µM [41] was 96.3%. It also gave an Activity [42] of 7.534%, a Retention_time [17] of 1.422 min and a viability at 100 µM [18] of about 50%. The Activity [43] was 3.098%, the Activity [19] was “Active” and the Activity [44] was 0.247%. The viability at 4 µM [45] was 94.8%, the IC50 [21] was 1.35 µM and the Activity [46] was 1.663%. The IC50 [22] was 4.18 µM, the Activity [47] was 6.769% and the “Ratio IC50” value [23] was 11.02.
